pIC50: −log10 of the molar value.
Columns and labels:
[1] = target: 3-phosphoinositide-dependent protein kinase 1 (Homo sapiens) (UniProt O15530); assay: Inhibition of PDK1
[2] = Inhibition of retinoblastoma susceptibility gene product phosphorylation in human MCF7 cells after 24 hrs

Row | pIC50 [1] | pIC50 [2] | Compound
1 | 4.77 | 6.21 | O=C1NC(=O)c2ccc(I)cc2C1=CNCc1ccc(-c2ccoc2)c(O)c1 [4-[(4-Furan-3-yl-3-hydroxy-benzylamino)-methylene]-6-iodo-4Hisoquinoline-1,3-dione]
2 |  | 6.70 | CCCOc1cnc(CNC=C2C(=O)NC(=O)c3ccc(C(C)(C)C)cc32)cc1O [6-tert-Butyl-4-{[(4-hydroxy-5-propoxy-pyridin-2-ylmethyl)-amino]-methylene}-4H-isoquinoline-1,3-dione]
3 |  | 6.43 | O=C1NC(=O)c2ccc(I)cc2C1=CNCc1ccn(-c2ccoc2)c(=O)c1 [(4Z)-4-[({[1-(3-Furyl)-2-oxo-1,2-dihydropyridin-4-yl]methyl}-amino)methylene]-6-iodoisoquinoline-1,3(2H,4H)-dione]
